For experiment [1], the target named is M. tuberculosis DXS (Mycobacterium tuberculosis, UniProt P9WNS3). Description: biochemical. The format is biochemical. Particulars: for inhibitory activity against M. tuberculosis DXS (in words): SAR discussion.
The subject of experiment [2] is Vero cells. Description: Vero cell cytotoxicity. The format is cell-based. The settings on record: Vero cell toxicity versus M. tuberculosis growth inhibition.

Structures are written as SMILES.

As a reminder, the IC50 is the midpoint of a concentration-inhibition curve. Read a high IC50 as a need for much substance.

Chain of M. tuberculosis DXS (P9WNS3 whole entry): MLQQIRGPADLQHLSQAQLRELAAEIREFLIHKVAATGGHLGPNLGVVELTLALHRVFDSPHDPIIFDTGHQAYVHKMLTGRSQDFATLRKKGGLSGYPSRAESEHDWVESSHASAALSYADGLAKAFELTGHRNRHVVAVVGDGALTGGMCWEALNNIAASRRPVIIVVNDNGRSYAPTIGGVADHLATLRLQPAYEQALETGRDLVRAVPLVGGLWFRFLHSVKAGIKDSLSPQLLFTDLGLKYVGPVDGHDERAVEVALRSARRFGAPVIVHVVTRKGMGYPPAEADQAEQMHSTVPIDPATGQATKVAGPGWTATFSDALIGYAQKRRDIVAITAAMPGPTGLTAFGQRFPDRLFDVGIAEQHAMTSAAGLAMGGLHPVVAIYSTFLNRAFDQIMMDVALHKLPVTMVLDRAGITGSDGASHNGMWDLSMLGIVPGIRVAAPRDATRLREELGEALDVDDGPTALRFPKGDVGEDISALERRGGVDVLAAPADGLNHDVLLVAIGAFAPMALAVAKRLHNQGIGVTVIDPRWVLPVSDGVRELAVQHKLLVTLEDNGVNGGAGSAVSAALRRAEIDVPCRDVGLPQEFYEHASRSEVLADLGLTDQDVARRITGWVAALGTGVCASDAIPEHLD

On to `COCc1cc(=O)n2nc(C)c(-c3ccc(Cl)cc3)c2[nH]1` [Compound 25], for which, in experiment [1], the “inhibitory activity against M. tuberculosis DXS (in words)” value is on record as “loss in activity”.
`CCCc1c(-c2ccccc2)[nH]c2c(-c3ccccc3)c(C)nn2c1=O` [Compound 27]: the IC50 in experiment [1] is 71.9 ± 10.1 µM.
Molecule `COc1ccc(-c2cc(=O)n3nc(C)c(-c4ccc(Cl)cc4)c3[nH]2)cc1` [Compound 18] returned a selectivity index in experiment [2] of 2.1.
In the case of `CCOC(=O)Cc1c(C)nc2c(-c3ccccc3)cnn2c1O` [Compound 4], in experiment [1], the “inhibitory activity against M. tuberculosis DXS (in words)” value is reported as “lost its activity”.
Still for that read-out and setting: then `COCc1cc(=O)n2ncc(-c3ccc(Cl)cc3)c2[nH]1` [Compound 2], with “inhibitory activity was abolished”; and `Cc1cc(=O)n2ncc(-c3ccc(Cl)cc3)c2[nH]1` [Compound 3], with “inhibitory activity was abolished”.
The molecule `COc1ccc(-c2cc(=O)n3nc(C)c(-c4ccc(F)cc4)c3[nH]2)cc1` [Compound 19, 2-methyl-3-(4-fluorophenyl)-5-(4-meth-oxy-phenyl)-4H-pyrazolo[1,5-a]pyrimidin-7-one] registered a selectivity index in experiment [2] of 4.6.

The values are drawn from article PMC4784473 (Bioorganic & medicinal chemistry letters, 2008).
